According to ChEMBL document CHEMBL6071160, “Identification of a novel 10-hydroxyevodiamine prodrug as a potent topoisomerase inhibitor with improved aqueous solubility for treatment of hepatocellular carcinoma” (Eur J Med Chem, 2024):
Activity calls are given as the source filed them. The rule behind the calls is not given here.

What was measured:
SK-HEP1 [1] = assay: Inhibition of cell invasion in human SK-HEP1 cells assessed as decrease in number of cells migration into lower compartment at 10 nM measured after 24 hrs by transwell assay; type: functional, cell-based
SK-HEP1 [2] = assay: Induction of apoptosis in human SK-HEP1 cells assessed as late apoptotic cells at 80 nM measured after 24 hrs by Annexin-V-FITC/PI analysis (reference value: 0.64%); type: functional
[3] = Drug resistance index, ratio of IC50 for antiproliferative activity against human SMMC-7721 cells to antiproliferative activity against human Doxorubicin-resistant SMMC-7721 cells; type: functional
Huh-7 [4] = assay: Induction of cell cycle arrest in human Huh-7 cells assessed as accumulation of cells at S phase 40 nM measured after 24 hrs by flow cytometric assay (reference value: 23.33%); type: functional
Huh-7 [5] = assay: Induction of cell cycle arrest in human Huh-7 cells assessed as accumulation of cells at S phase 20 nM measured after 24 hrs by flow cytometric assay (reference value: 23.33%); type: functional
SK-HEP1 [6] = assay: Induction of apoptosis in human SK-HEP1 assessed as loss of mitochondrial membrane potential by measuring JC-1 stained cells at 40 nM measured after 24 hrs by JC-1 staining based flow cytometry (reference value: 0.49%); type: functional
SK-HEP1 [7] = assay: Inhibition of cell migration in human SK-HEP1 cells at 20 nM measured for 24 hrs by scratch wound healing assay; type: functional, cell-based
SK-HEP1 [8] = assay: Induction of apoptosis in human SK-HEP1 cells assessed as late apoptotic cells at 40 nM measured after 24 hrs by Annexin-V-FITC/PI analysis (reference value: 0.64%); type: functional
Huh-7 [9] = assay: Induction of apoptosis in human Huh-7 cells assessed as necrotic cells at 80 nM measured after 24 hrs by Annexin-V-FITC/PI analysis (reference value: 0.27%); type: functional
Huh-7 [10] = assay: Inhibition of cell invasion in human Huh-7 cells assessed as decrease in number of cells migration into lower compartment at 10 nM measured after 24 hrs by transwell assay; type: functional, cell-based
[11] = Chemical stability of compound at pH 4.6 assessed as residual rate measured after 2 days; type: physicochemical; conditions: buffer, time 2 day, read-out: Stability
SK-HEP1 [12] = assay: Induction of cell cycle arrest in human SK-HEP1 cells assessed as accumulation of cells at G1 phase 80 nM measured after 24 hrs by flow cytometric assay (reference value: 47.55%); type: functional
Huh-7 [13] = assay: Induction of apoptosis in human Huh-7 cells assessed as loss of mitochondrial membrane potential by measuring JC-1 stained cells at 80 nM measured after 24 hrs by JC-1 staining based flow cytometry (reference value: 2.27%); type: functional
NCI-H1703 = assay: Antiproliferative activity against human NCI-H1703 cells assessed as decrease in EdU positive cells measured after 24 hrs by Edu incorporation based fluorescence microscopic analysis; type: functional, cell-based; conditions: dose 10-40 nM
[14] = Chemical stability of compound at pH 5.5 assessed as residual rate measured after 2 days; type: physicochemical; conditions: buffer, time 2 day, read-out: Stability
[15] = Prodrug conversion in rat plasma assessed as half life by measuring parent 10-hydroxyevodiamine derivative release by HPLC analysis; type: ADME, cell-free
SK-HEP1 [16] = assay: Induction of apoptosis in human SK-HEP1 cells assessed as viable cells at 80 nM measured after 24 hrs by Annexin-V-FITC/PI analysis (reference value: 97.20%); type: functional; conditions: read-out: Activity
Huh-7 [17] = assay: Inhibition of cell invasion in human Huh-7 cells assessed as decrease in number of cells migration into lower compartment at 40 nM measured after 24 hrs by transwell assay; type: functional, cell-based
Huh-7 [18] = assay: Inhibition of cell migration in human Huh-7 cells at 40 nM measured for 24 hrs by scratch wound healing assay; type: functional, cell-based
[19] = Toxicity in BALB/c nude mouse subcutaneously injected with human Huh-7 cells assessed as change in body weight at 40 mg/kg, ip administered once other day measured after 14 days; type: organism-based; conditions: in vivo, 336 h, time 14 day
Huh-7 [20] = assay: Induction of apoptosis in human Huh-7 cells assessed as ROS generation by measuring DCFH2-DA stained cells at 20 nM measured after 24 hrs […] (reference value: 0.45%); type: functional
Huh-7 [21] = assay: Induction of apoptosis in human Huh-7 cells assessed as late apoptotic cells at 80 nM measured after 24 hrs by Annexin-V-FITC/PI analysis (reference value: 1.23%); type: functional
SK-HEP1 [22] = assay: Inhibition of cell migration in human SK-HEP1 cells at 10 nM measured for 24 hrs by scratch wound healing assay; type: functional, cell-based
[23] = Aqueous solubility of the compound […] measured after 72 hrs in shaking by HPLC analysis; type: physicochemical
[24] = Toxicity in BALB/c nude mouse subcutaneously injected with human Huh-7 cells assessed as animal death at 40 mg/kg, ip administered once daily measured after 14 days; type: organism-based; conditions: in vivo, 336 h, time 14 day
Huh-7 [25] = assay: Antiproliferative activity against human Huh-7 cells assessed as inhibition of colony formation at 10 to 40 nM measured 1 to 2 weeks by human tumor clonogenic assays (HTCA); type: functional, cell-based; conditions: dose 10-40 nM, time 1-2 weeks
[26] = target: DNA topoisomerase II (Homo sapiens) (UniProt P11388+Q02880); assay: Inhibition of DNA topoisomerase 2 (unknown origin) assessed as relaxation of supercoiled plasmid pBR322 DNA at 25 to 100 uM incubated for 15 mins measured after 30 mins addition of ethidium bromide by agarose gel electrophoresis; type: protein assay; conditions: dose 25-100 µM
[27] = Toxicity in BALB/c nude mouse subcutaneously injected with human Huh-7 cells assessed as change in platelet level at 10 mg/kg, ip administered once daily measured after 14 days; type: organism-based; conditions: in vivo, 336 h, time 14 day
[28] = Toxicity in BALB/c nude mouse subcutaneously injected with human Huh-7 cells assessed as changes in lung tissue at 10 mg/kg, ip administered once daily measured after 14 days by H and E staining based assay; type: organism-based; conditions: in vivo, 336 h, time 14 day
Huh-7 [29] = assay: Induction of apoptosis in human Huh-7 cells assessed as late apoptotic cells at 20 nM measured after 24 hrs by Annexin-V-FITC/PI analysis (reference value: 1.23%); type: functional
SK-HEP1 [30] = assay: Induction of apoptosis in human SK-HEP1 cells assessed as early apoptotic cells at 80 nM measured after 24 hrs by Annexin-V-FITC/PI analysis (reference value: 1.45%); type: functional
[31] = Toxicity in BALB/c nude mouse subcutaneously injected with human Huh-7 cells assessed as changes in liver tissue at 10 mg/kg, ip administered once daily measured after 14 days by H and E staining based assay; type: organism-based; conditions: in vivo, 336 h, time 14 day
SK-HEP1 [32] = assay: Induction of apoptosis in human SK-HEP1 cells assessed as early apoptotic cells at 20 nM measured after 24 hrs by Annexin-V-FITC/PI analysis (reference value: 1.45%); type: functional
SK-HEP1 [33] = assay: Induction of apoptosis in human SK-HEP1 cells assessed as viable cells at 20 nM measured after 24 hrs by Annexin-V-FITC/PI analysis (reference value: 97.20%); type: functional; conditions: read-out: Activity
SK-HEP1 [34] = assay: Induction of cell cycle arrest in human SK-HEP1 cells assessed as accumulation of cells at G2 phase 20 nM measured after 24 hrs by flow cytometric assay (reference value: 22.41%); type: functional

With `C[N+](C)(C)CCC(=O)Oc1ccc2[nH]c3c(c2c1)CCN1C(=O)c2cc(F)cc(F)c2N(c2cccc(F)c2)C31.[I-]` (stereo not given) as the molecule, how does the inhibition (SK-HEP1 [1]) read?
Its inhibition is “Active”.

What about the Activity (SK-HEP1 [2]) of the same molecule?
The Activity was 11.59%.

What about the Ratio [3] of the same molecule?
The Ratio was 1.2.

What about the Activity (Huh-7 [4]) of the same molecule?
The Activity was 21.3%.

What about the Activity (Huh-7 [5]) of the same molecule?
Its Activity is 27.35%.

What about the Activity (SK-HEP1 [6]) of the same molecule?
Its Activity is 1.49%.

And the inhibition (SK-HEP1 [7])?
Its inhibition is “Active”.

And the Activity (SK-HEP1 [8])?
Its Activity is 1.31%.

And the Activity (Huh-7 [9])?
The Activity was 0.83%.

What about the inhibition (Huh-7 [10]) of the same molecule?
The inhibition was “Active”.

And the remaining at 48 h [11]?
The remaining at 48 h was 63.1%.

What about the Activity (SK-HEP1 [12]) of the same molecule?
Its Activity is 13.31%.

What about the Activity (Huh-7 [13]) of the same molecule?
Its Activity is 12.52%.

What about the Activity (NCI-H1703) of the same molecule?
The Activity was “Dose-Dependent Effect”.

And the remaining at 48 h [14]?
Its remaining at 48 h is 55.8%.

And the t1/2 [15]?
Its t1/2 is 30 min.

And the viability at 0.08 µM (SK-HEP1 [16])?
The viability at 0.08 µM was 64.7%.

What about the inhibition (Huh-7 [17]) of the same molecule?
The inhibition was “Active”.

What about the inhibition (Huh-7 [18]) of the same molecule?
Its inhibition is “Active”.

What about the Activity [19] of the same molecule?
The Activity was “Non-Toxic”.

And the Activity (Huh-7 [20])?
The Activity was 0.73%.

What about the Activity (Huh-7 [21]) of the same molecule?
Its Activity is 11.64%.

What about the inhibition (SK-HEP1 [22]) of the same molecule?
The inhibition was “Active”.

And the solubility thermodynamic at 72 h [23]?
The solubility thermodynamic at 72 h was 967 µg/mL.

And the Activity [24]?
Its Activity is “Toxic”.

And the Activity (Huh-7 [25])?
The Activity was “Active”.

What about the inhibition [26] of the same molecule?
Its inhibition is “Active”.

What about the Activity [27] of the same molecule?
Its Activity is “Non-Toxic”.

What about the Activity [28] of the same molecule?
The Activity was “Non-Toxic”.

And the Activity (Huh-7 [29])?
Its Activity is 2.03%.

And the Activity (SK-HEP1 [30])?
Its Activity is 22.57%.

What about the Activity [31] of the same molecule?
Its Activity is “Non-Toxic”.

What about the Activity (SK-HEP1 [32]) of the same molecule?
The Activity was 1.59%.

And the viability at 0.02 µM (SK-HEP1 [33])?
The viability at 0.02 µM was 97.2%.

And the Activity (SK-HEP1 [34])?
Its Activity is 23.61%.
